In US20250136578A1 (Kolm Therapeutics Inc., priority 2023, published 2025) one finds EC50 data, which are given here for 15 molecules.

A value given as a limit tells only on which side of the number the result lay.

Sequence of AR / CBP ternary complex (P10275 whole entry): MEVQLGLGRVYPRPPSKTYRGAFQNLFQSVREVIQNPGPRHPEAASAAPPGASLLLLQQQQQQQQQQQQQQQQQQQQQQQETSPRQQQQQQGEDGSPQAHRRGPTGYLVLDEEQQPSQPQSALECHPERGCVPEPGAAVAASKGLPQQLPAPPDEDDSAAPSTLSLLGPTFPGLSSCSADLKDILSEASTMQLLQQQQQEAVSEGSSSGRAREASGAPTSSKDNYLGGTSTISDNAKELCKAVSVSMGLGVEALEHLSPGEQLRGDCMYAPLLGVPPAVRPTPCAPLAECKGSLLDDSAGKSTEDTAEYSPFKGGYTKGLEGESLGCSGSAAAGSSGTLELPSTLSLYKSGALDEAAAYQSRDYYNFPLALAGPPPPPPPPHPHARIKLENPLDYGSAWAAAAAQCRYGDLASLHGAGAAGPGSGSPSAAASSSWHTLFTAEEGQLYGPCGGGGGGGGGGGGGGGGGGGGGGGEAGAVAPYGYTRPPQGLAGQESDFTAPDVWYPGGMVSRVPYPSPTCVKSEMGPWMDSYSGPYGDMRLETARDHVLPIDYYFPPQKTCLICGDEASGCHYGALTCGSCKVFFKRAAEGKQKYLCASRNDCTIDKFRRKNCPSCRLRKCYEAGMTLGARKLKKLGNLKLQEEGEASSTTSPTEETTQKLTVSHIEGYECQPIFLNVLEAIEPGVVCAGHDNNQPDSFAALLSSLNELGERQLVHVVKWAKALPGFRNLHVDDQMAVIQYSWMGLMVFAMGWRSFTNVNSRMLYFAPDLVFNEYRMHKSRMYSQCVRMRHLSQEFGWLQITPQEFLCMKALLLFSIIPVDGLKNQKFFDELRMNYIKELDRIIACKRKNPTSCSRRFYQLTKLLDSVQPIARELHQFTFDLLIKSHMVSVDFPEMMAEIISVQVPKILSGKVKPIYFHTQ
Sequence of AR / CBP ternary complex (Q92793 2-2442): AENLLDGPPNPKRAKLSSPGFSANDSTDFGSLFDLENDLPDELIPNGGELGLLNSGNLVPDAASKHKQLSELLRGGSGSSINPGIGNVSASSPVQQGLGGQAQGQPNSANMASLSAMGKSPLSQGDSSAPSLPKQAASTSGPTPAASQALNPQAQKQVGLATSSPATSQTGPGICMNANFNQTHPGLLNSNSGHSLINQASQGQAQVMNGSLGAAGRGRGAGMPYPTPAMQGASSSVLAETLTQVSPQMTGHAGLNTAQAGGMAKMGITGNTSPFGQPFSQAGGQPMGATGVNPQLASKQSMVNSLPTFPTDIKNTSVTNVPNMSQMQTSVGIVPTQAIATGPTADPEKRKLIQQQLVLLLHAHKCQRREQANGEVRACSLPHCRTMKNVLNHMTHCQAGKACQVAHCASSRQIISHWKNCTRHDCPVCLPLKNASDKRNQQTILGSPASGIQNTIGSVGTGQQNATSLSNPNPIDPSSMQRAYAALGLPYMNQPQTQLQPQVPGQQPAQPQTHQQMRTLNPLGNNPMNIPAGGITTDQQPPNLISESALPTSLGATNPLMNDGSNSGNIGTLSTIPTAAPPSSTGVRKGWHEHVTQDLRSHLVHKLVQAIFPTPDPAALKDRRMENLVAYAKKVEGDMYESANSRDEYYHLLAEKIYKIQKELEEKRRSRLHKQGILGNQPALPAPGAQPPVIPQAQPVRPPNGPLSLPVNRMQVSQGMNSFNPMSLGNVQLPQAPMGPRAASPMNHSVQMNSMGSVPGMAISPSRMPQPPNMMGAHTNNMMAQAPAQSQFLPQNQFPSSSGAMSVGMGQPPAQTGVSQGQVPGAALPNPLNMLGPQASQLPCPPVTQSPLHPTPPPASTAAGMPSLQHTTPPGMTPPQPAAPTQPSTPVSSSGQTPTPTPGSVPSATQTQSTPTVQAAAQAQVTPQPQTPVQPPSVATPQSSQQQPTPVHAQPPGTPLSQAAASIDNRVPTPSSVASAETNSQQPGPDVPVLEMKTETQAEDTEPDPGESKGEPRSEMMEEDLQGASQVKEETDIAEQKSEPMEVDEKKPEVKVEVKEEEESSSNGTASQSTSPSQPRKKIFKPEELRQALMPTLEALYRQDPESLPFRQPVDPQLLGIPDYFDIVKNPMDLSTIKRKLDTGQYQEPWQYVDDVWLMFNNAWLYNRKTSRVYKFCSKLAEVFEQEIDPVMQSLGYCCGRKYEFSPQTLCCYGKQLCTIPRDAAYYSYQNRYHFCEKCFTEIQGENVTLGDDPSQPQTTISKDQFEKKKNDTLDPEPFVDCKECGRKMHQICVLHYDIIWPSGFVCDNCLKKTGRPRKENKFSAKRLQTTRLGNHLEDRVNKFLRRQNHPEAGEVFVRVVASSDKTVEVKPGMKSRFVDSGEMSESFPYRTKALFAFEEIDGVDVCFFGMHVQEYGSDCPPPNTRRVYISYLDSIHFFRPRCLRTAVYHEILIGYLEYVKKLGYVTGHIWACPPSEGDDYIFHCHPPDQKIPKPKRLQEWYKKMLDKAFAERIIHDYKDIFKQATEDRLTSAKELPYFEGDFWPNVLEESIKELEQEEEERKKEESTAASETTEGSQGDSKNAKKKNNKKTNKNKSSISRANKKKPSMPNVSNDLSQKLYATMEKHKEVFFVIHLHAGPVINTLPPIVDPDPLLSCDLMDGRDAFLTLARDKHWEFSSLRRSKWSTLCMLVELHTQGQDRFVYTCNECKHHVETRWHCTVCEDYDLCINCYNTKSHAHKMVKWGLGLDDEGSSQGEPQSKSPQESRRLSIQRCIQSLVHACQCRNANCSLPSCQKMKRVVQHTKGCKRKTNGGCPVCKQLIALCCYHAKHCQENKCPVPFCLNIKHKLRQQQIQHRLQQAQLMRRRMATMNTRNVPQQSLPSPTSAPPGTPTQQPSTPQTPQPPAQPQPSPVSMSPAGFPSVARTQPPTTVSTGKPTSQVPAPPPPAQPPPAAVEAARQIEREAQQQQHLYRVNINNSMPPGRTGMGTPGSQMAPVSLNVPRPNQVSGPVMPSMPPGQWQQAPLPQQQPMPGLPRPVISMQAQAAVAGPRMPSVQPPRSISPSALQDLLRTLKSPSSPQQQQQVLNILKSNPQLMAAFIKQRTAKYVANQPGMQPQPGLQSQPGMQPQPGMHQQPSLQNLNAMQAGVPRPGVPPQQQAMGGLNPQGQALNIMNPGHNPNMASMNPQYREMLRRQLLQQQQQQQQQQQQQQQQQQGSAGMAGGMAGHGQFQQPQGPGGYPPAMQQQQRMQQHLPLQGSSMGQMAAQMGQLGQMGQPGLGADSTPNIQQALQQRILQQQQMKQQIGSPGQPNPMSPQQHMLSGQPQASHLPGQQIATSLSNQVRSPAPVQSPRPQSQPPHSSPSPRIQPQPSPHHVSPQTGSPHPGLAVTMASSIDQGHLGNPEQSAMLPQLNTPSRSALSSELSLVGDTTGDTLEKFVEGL

The target of this assay is AR / CBP ternary complex (Homo sapiens, UniProt P10275+Q92793). The assay can be described thus: Ternary complex formation assay (sandwich ELISA, AR capture, CBP antibody detection) in VCaP cell lysates. As to conditions: treated 1.5 hours, rabbit CBP or p300 antibody detection, average, read-out: Average Ternary Complex. It is filed as cell-based. How it is done:
Black MaxiSorp plates: coat with 50 μL of mouse 1/50 diluted AR antibody (Monoclonal Antibody (AR 441 from Thermo Fisher); diluted in phosphate buffered saline (PBS). Spin the liquid to the bottom of the wells, if necessary. Incubate overnight at 4° C. Next day, wash 3 times with 200 μL of TBST. Block with 200 μL of blocking buffer (5% BSA in TBST) at room temperature for 2 hours (BSA: A4503 or A2153 from Sigma). Wash plates 3 times with TBST. Plates are ready for lysates Preparation of dimerizer treated lysates
Culture cells in 96 wells at 50K VCaP cells/well for at least 3 days. Plate in 5% Omega charcoal stripped FBS in total volume of 200 uL. Treat with bifunctional for 1.5 hours by adding 1 μL of 200× stock in DMSO. Aspirate media/compound. Add and pipet-to-mix 70 μL of 1× AlphaLisa Lysis Buffer to each well (Perkin Elmer, AlphaLISA SureFire Ultra, diluted in water). Pipet up and down when adding lysis buffer to disrupt cells. Let lysis proceed for 30 min at 4° C.
Incubate for 1 hour at room temperature. Flick out the lysates. Wash 3 times with TBST. Add 75 μL of rabbit CBP or p300 antibody to each well (diluted 1:5000 in blocking buffer (5% BSA in TBST). CBP antibody: (D6C5) Rabbit mAb #7389; p300 antibody: (D8Z4E) Rabbit mAb #86377. Incubate overnight at 4° C. Wash 3 times with 300 uL TBST, each time on shaker for 5-10 min. Prepare goat anti-rabbit antibody conjugated to HRP (1/100K dilution in blocking buffer) Invitrogen Catalog number: 32260. Add 75 μL of HRP-conjugated goat anti-rabbit antibody. Incubate at room temperature for 1 hour. Flick out the HRP-antibody mixture. Wash 7-8 times with TBST, each time on shaker for 10 min. Later washes try to overflow the wells so that no residual HRP remains bound to the sides of the well. Prepare and add 75 uL/well of QuantaRed Enhance Chemifluorescent HRP Substrate solution. Immediately read fluorescence on BMG ClarioStar (ex: 570/em 585), and repeat the read in 5 minutes and 15 minutes.
A general note: ELISA stands for enzyme-linked immunosorbent assay.
In the case of `CC(=O)N1CCc2c(c(N3CCCc4cc(-c5cnn(C)c5)c(C(F)F)cc43)nn2[C@H]2CCC3(CC2)C[C@H](Oc2ccc(C(=O)N[C@H]4CC[C@H](Oc5ccc(C#N)c(Cl)c5)CC4)nn2)C3)C1` (mixture of isomers) [Compound 235, 6-((7-(5-acetyl-3-(7-(difluoromethyl)-6-(1-methyl-1H-pyrazol-4-yl)-3,4-dihydroquinolin-1(2H)-yl)-4,5,6,7-tetrahydro-1H-pyrazolo[4,3-c]pyridin-1-yl)spiro[3.5]nonan-2-yl)oxy)-N-((1SR,4SR)-4-(3-chloro-4-cyanophenoxy)cyclohexyl)pyridazine-3-carboxamide], the EC50 is less than 1 nM. Consider `CC(=O)N1CCc2c(c(N3CCCc4cc(-c5cnn(C)c5)c(C(F)F)cc43)nn2[C@H]2CCC3(CC2)C[C@H](Oc2ccc(C(=O)N[C@H]4CC[C@H](Oc5ccc(C#N)c(Cl)c5)CC4)nn2)C3)C1` (mixture of isomers) [Compound 301, 6-((7-(5-acetyl-3-(7-(difluoromethyl)-6-(1-methyl-1H-pyrazol-4-yl)-3,4-dihydroquinolin-1(2H)-yl)-4,5,6,7-tetrahydro-1H-pyrazolo[4,3-c]pyridin-1-yl)spiro[3.5]nonan-2-yl)oxy)-N-((1SR,4SR)-4-(3-chloro-4-cyanophenoxy)cyclohexyl)pyridazine-3-carboxamide], for which the EC50 was less than 1 nM. Consider `CC(=O)N1CCc2c(c(-c3cccc4cc(-c5cnn(C)c5)ncc34)nn2C2CCN(CC3CCN(c4ncc(C(=O)N[C@H]5CC[C@H](Oc6ccc(C#N)c(Cl)c6)CC5)cn4)CC3)CC2)C1` [Compound 6], for which the EC50 was less than 1 nM. In the case of `CC(=O)N1CCc2c(c(N3CCCc4cc(-c5cnn(C)c5)ccc43)nn2C2CCN(CC3CCN(c4ncc(C(=O)N[C@H]5CC[C@H](Oc6ccc(C#N)c(Cl)c6)CC5)cn4)CC3)CC2)C1` [Compound 11, 2-[4-[[4-[5-acetyl-3-[6-(1-methylpyrazol-4-yl)-3,4-dihydro-2H-quinolin-1-yl]-6,7-dihydro-4H-pyrazolo[4,3-c]pyridin-1-yl]-1-piperidyl]methyl]-1-piperidyl]-N-[4-(3-chloro-4-cyano-phenoxy)cyclohexyl]pyrimidine-5-carboxamide], the EC50 is less than 1 nM. Take `CC(=O)N1CCc2c(c(N3CCCc4cc(-c5cnn(C)c5)c(C(F)F)cc43)nn2C2CCN(CC3CCN(c4ncc(C(=O)N[C@H]5CC[C@H](Oc6ccc(C#N)c(Cl)c6)CC5)cn4)CC3)CC2)C1` [Compound 17, 2-[4-[[4-[5-acetyl-3-[7-(difluoromethyl)-6-(1-methylpyrazol-4-yl)-3,4-dihydro-2H-quinolin-1-yl]-6,7-dihydro-4H-pyrazolo[4,3-c]pyridin-1-yl]-1-piperidyl]methyl]-1-piperidyl]-N-[4-(3-chloro-4-cyano-phenoxy)cyclohexyl]pyrimidine-5-carboxamide]: the EC50 is less than 1 nM. On to `CC(=O)N1CCc2c(c(-c3cccc4cc(-c5cnn(CCC6CCN(c7ccc(C(=O)N[C@H]8CC[C@H](Oc9ccc(C#N)c(Cl)c9)CC8)nn7)CC6)c5)ncc34)nn2C2CCOCC2)C1` [Compound 24, 6-[4-[2-[4-[8-(5-acetyl-1-tetrahydropyran-4-yl-6,7-dihydro-4H-pyrazolo[4,3-c]pyridin-3-yl)-3-isoquinolyl]pyrazol-1-yl]ethyl]-1-piperidyl]-N-[4-(3-chloro-4-cyano-phenoxy)cyclohexyl]pyridazine-3-carboxamide], for which the EC50 is less than 1 nM. Next, `CC(=O)N1CCc2c(c(-c3cccc4cc(-c5cnn(CCN6CCN(c7ccc(C(=O)N[C@H]8CC[C@H](Oc9ccc(C#N)c(Cl)c9)CC8)nn7)CC6)c5)ncc34)nn2C2CCOCC2)C1` [Compound 29, 6-[4-[2-[4-[8-(5-acetyl-1-tetrahydropyran-4-yl-6,7-dihydro-4H-pyrazolo[4,3-c]pyridin-3-yl)-3-isoquinolyl]pyrazol-1-yl]ethyl]piperazin-1-yl]-N-[4-(3-chloro-4-cyano-phenoxy)cyclohexyl]pyridazine-3-carboxamide]: less than 1 nM; `CC(=O)N1CCc2c(c(N3CCCc4cc(-c5cnn(C)c5)c(C(F)F)cc43)nn2C2CCN(CC3(F)CCN(c4ccc(C(=O)N[C@H]5CC[C@H](Oc6ccc(C#N)c(Cl)c6)CC5)nn4)CC3)CC2)C1` [Compound 142, 6-[4-[[4-[5-acetyl-3-[7-(difluoromethyl)-6-(1-methylpyrazol-4-yl)-3,4-dihydro-2H-quinolin-1-yl]-6,7-dihydro-4H-pyrazolo[4,3-c]pyridin-1-yl]-1-piperidyl]methyl]-4-fluoro-1-piperidyl]-N-[4-(3-chloro-4-cyano-phenoxy)cyclohexyl]pyridazine-3-carboxamide]: less than 1 nM; `CC(=O)N1CCc2c(c(N3CCCc4cc(-c5cnn(C)c5)c(C(F)F)cc43)nn2C2CCc3c(cnn3C3CCN(c4ccc(C(=O)N[C@H]5CC[C@H](Oc6ccc(C#N)c(Cl)c6)CC5)nn4)CC3)C2)C1` (stereo partly drawn) [Compound 178, 6-[4-[5-[5-acetyl-3-[7-(difluoromethyl)-6-(1-methylpyrazol-4-yl)-3,4-dihydro-2H-quinolin-1-yl]-6,7-dihydro-4H-pyrazolo[4,3-c]pyridin-1-yl]-4,5,6,7-tetrahydroindazol-1-yl]-1-piperidyl]-N-[4-(3-chloro-4-cyano-phenoxy)cyclohexyl]pyridazine-3-carboxamide]: less than 1 nM. To `CC(=O)N1CCc2c(c(N3CCCc4cc(-c5ccc(OC6CC7(CCN(c8ccc(C(=O)N[C@H]9CC[C@H](Oc%10ccc(C#N)c(Cl)c%10)CC9)nn8)CC7)C6)cc5)c(C(F)F)cc43)nn2C2CCOCC2)C1` [Compound 203, 6-[2-[4-[1-(5-acetyl-1-tetrahydropyran-4-yl-6,7-dihydro-4H-pyrazolo[4,3-c]pyridin-3-yl)-7-(difluoromethyl)-3,4-dihydro-2H-quinolin-6-yl]phenoxy]-7-azaspiro[3.5]nonan-7-yl]-N-[4-(3-chloro-4-cyano-phenoxy)cyclohexyl]pyridazine-3-carboxamide] belongs less than 1 nM. `CC(=O)N1CCc2c(c(N3CCCc4cc(-c5ccc(N6CCC(N7CCN(c8ccc(C(=O)N[C@H]9CC[C@H](Oc%10ccc(C#N)c(Cl)c%10)CC9)nn8)CC7)CC6)nc5)c(C(F)F)cc43)nn2C2CCOCC2)C1` [Compound 215]: the EC50 was less than 1 nM. Next, `CC(=O)N1CCc2c(c(N3CCCc4cc(-c5cnn(C)c5)c(C(F)F)cc43)nn2C2CCN(CC3CCN(c4nnc(C(=O)N[C@H]5CC[C@H](Oc6ccc(C#N)c(Cl)c6)CC5)s4)CC3)CC2)C1` [Compound 225]: less than 1 nM; `CC(=O)N1CCc2c(c(N3CCCc4cc(-c5cnn(C)c5)c(C(F)F)cc43)nn2C2CCN(C(=O)C3CCN(c4nnc(C(=O)N[C@H]5CC[C@H](Oc6ccc(C#N)c(Cl)c6)CC5)s4)CC3)CC2)C1` [Compound 226, 5-[4-[4-[5-acetyl-3-[7-(difluoromethyl)-6-(1-methylpyrazol-4-yl)-3,4-dihydro-2H-quinolin-1-yl]-6,7-dihydro-4H-pyrazolo[4,3-c]pyridin-1-yl]piperidine-1-carbonyl]-1-piperidyl]-N-[4-(3-chloro-4-cyano-phenoxy)cyclohexyl]-1,3,4-thiadiazole-2-carboxamide]: less than 1 nM; `CC(=O)N1CCc2c(c(N3CCCc4cc(-c5cnn(C)c5)c(C(F)F)cc43)nn2C2CCN(C3CCC4(C3)CN(c3ccc(C(=O)N[C@H]5CC[C@H](Oc6ccc(C#N)c(Cl)c6)CC5)nn3)C4)CC2)C1` (stereo partly drawn) [Compound 227, 6-[6-[4-[5-acetyl-3-[7-(difluoromethyl)-6-(1-methylpyrazol-4-yl)-3,4-dihydro-2H-quinolin-1-yl]-6,7-dihydro-4H-pyrazolo[4,3-c]pyridin-1-yl]-1-piperidyl]-2-azaspiro[3.4]octan-2-yl]-N-[4-(3-chloro-4-cyano-phenoxy)cyclohexyl]pyridazine-3-carboxamide]: less than 1 nM.

In the case of `CC(=O)N1CCc2c(c(N3CCCc4cc(-c5cnn(C)c5)c(C(F)F)cc43)nn2C2CCN(C3CC4(CCN(c5ccc(C(=O)N[C@H]6CC[C@H](Oc7ccc(C#N)c(Cl)c7)CC6)nn5)C4)C3)CC2)C1` (stereo partly drawn) [Compound 228, 6-[2-[4-[5-acetyl-3-[7-(difluoromethyl)-6-(1-methylpyrazol-4-yl)-3,4-dihydro-2H-quinolin-1-yl]-6,7-dihydro-4H-pyrazolo[4,3-c]pyridin-1-yl]-1-piperidyl]-6-azaspiro [3.4]octan-6-yl]-N-[4-(3-chloro-4-cyano-phenoxy)cyclohexyl] pyridazine-3-carboxamide], the EC50 was less than 1 nM.
